These are literature values, as cited in patent US5603954A (priority 1995, dated 1997).

The conditions of data set [1]: metabolites appear after dosing in the plasma.
The test system of data set [2] is patients with chronic peripheral arterial disease.

Molecules are shown by their SMILES.

With `CC(=O)CCCCn1c(=O)c2c(ncn2C)n(C)c1=O` [pentoxifylline, 3,7-dihydro-3,7-dimethyl-1-(5-oxohexyl)-1H-purine-2,6-dione], the first-pass effect result in data set [1] is recorded as “undergoes a first-pass effect”. Also, in data set [2], the “blood flow to the affected microcirculation” value is “increases the blood flow” and the tissue oxygenation result is recorded as “enhances tissue oxygenation”.
